Experiments:
[1] = target: Kappa-type opioid receptor (Cavia porcellus, UniProt P41144); test: Displacement of [3H]-diprenorphine from guinea pig kappa opioid receptor expressed in CHOK1 cell membranes; settings: cho-k1
[2] = target: Delta-type opioid receptor (Homo sapiens, UniProt P41143); test: Displacement of [3H]-diprenorphine from human delta opioid receptor expressed in cell membranes
[3] = target: Mu-type opioid receptor (Homo sapiens) (UniProt P35372); test: Intrinsic activity at human mu opioid receptor expressed in CHOK1 cell membranes at 0.00001 to 20 uM after 30 mins by GTP-Eu nucleotide exchange assay relative to DAMGO; assay type: functional; settings: CHO-K1
Chain of Mu-type opioid receptor (Homo sapiens) (P35372 whole entry): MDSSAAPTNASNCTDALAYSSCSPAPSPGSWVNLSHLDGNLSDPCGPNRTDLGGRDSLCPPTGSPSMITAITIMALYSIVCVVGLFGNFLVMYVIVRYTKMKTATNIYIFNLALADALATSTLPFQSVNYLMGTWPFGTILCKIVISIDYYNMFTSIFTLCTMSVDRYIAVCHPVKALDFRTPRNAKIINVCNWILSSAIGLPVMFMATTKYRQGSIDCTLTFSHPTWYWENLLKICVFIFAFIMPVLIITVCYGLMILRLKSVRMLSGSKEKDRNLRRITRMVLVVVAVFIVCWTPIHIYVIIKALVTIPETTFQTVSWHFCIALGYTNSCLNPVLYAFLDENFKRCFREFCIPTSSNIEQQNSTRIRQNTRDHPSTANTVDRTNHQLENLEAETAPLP

Chain of Kappa-type opioid receptor (P41144 whole entry): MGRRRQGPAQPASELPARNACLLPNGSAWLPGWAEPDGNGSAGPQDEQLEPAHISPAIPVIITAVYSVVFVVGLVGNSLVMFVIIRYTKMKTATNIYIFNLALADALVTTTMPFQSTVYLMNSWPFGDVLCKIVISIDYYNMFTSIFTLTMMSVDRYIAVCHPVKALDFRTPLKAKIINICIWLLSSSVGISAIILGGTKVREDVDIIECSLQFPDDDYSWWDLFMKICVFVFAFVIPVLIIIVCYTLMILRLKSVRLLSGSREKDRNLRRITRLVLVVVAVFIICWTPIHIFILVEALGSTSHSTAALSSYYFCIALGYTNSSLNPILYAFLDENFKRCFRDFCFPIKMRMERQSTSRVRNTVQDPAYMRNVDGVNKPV
Chain of Delta-type opioid receptor (P41143 whole entry): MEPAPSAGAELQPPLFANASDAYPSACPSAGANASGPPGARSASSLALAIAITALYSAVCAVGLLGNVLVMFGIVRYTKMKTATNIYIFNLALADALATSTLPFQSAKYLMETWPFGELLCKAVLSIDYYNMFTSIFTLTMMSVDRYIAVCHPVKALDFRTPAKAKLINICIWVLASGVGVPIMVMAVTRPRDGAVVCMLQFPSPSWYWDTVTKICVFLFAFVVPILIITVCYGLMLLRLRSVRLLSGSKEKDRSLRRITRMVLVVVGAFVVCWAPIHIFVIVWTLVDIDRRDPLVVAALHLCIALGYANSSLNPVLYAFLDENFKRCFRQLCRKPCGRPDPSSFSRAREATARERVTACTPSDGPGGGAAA

Structure (SMILES) | pKi [1] | pKi [2] | Intrinsic activity [3]
CC(CO)(CO)C(=O)N(CCN1[C@@H]2CC[C@H]1C[C@@H](c1cccc(C(N)=O)c1)C2)CC1CCC(F)(F)CC1.O=C(O)C(F)(F)F | 7 to 10.5 | 7 to 10.5 | < 40%
CS(=O)(=O)N(CCN1[C@@H]2CC[C@H]1C[C@@H](c1cccc(C(N)=O)c1)C2)CC1CCCC1.O=C(O)C(F)(F)F | 7 to 10.5 | 7 to 10.5 | < 40%
NC(=O)CCC(=O)N(CCN1[C@@H]2CC[C@H]1C[C@@H](c1cccc(O)c1)C2)CC1CCCCC1 | 7 to 10.5 | 7 to 10.5 | < 40%
NC(=O)c1cccc([C@H]2C[C@H]3CC[C@@H](C2)N3CCN(CCc2ccc(F)cc2)C(=O)CO)c1.O=C(O)C(F)(F)F | 7 to 10.5 | 7 to 10.5 | < 40%
O=C([C@@H](O)C1CCCCC1)N(CCN1[C@@H]2CC[C@H]1C[C@@H](c1cccc(O)c1)C2)CC1CCCCC1 | 7 to 10.5 | 7 to 10.5 | < 40%
CC(C)CC(=O)N(CCN1[C@@H]2CC[C@H]1C[C@@H](c1cccc(O)c1)C2)CC1CCCCC1 | 7 to 10.5 | 7 to 10.5 | < 40%
NC(=O)c1cccc([C@H]2C[C@H]3CC[C@@H](C2)N3CCN(Cc2ccccc2)C(=O)[C@@H](O)CO)c1.O=C(O)C(F)(F)F | 7 to 10.5 | 7 to 10.5 | < 40%
O=C([C@H](O)C1CCCCC1)N(CCN1[C@@H]2CC[C@H]1C[C@@H](c1cccc(O)c1)C2)CC1CCCCC1 | 7 to 10.5 | 7 to 10.5 | < 40%
CC(C)C[C@H](O)C(=O)N(CCN1[C@@H]2CC[C@H]1C[C@@H](c1cccc(C(N)=O)c1)C2)Cc1c(F)cccc1F.O=C(O)C(F)(F)F | 7 to 10.5 | 7 to 10.5 | < 40%
CN(C)CC[C@H](O)C(=O)N(CCN1[C@@H]2CC[C@H]1C[C@@H](c1cccc(C(N)=O)c1)C2)CC1CCC(F)(F)CC1.O=C(O)C(F)(F)F.O=C(O)C(F)(F)F | 7 to 10.5 | 7 to 10.5 | < 40%
NC(=O)c1cccc([C@H]2C[C@H]3CC[C@@H](C2)N3CCN(CC2CCCCC2)C(=O)C2(O)CC2)c1.O=C(O)C(F)(F)F | 7 to 10.5 | 7 to 10.5 | < 40%
CC(C)C[C@H](O)C(=O)N(CCN1[C@@H]2CC[C@H]1C[C@@H](c1cccc(C(N)=O)c1)C2)CC1CCCCC1 | 7 to 10.5 | 7 to 10.5 | < 40%
CCN(CC)CC[C@H](O)C(=O)N(CCN1[C@@H]2CC[C@H]1C[C@@H](c1cccc(C(N)=O)c1)C2)CC1CCCCC1 | 7 to 10.5 | 7 to 10.5 | < 40%
O=C(O)CS(=O)(=O)CC(=O)N(CCN1[C@@H]2CC[C@H]1C[C@@H](c1cccc(O)c1)C2)CC1CCCCC1 | 7 to 10.5 | 7 to 10.5 | < 40%
CC(C)(C)C(=O)N(CCN1[C@@H]2CC[C@H]1C[C@@H](c1cccc(C(N)=O)c1)C2)Cc1ccccc1.O=C(O)C(F)(F)F | 7 to 10.5 | 7 to 10.5 | < 40%
O=C(Nc1cccc(F)c1)N(CCN1[C@@H]2CC[C@H]1C[C@@H](c1cccc(O)c1)C2)CC1CCCCC1 | 7 to 10.5 | 7 to 10.5 | < 40%
CS(=O)(=O)CC(=O)N(CCN1[C@@H]2CC[C@H]1C[C@@H](c1cccc(C(N)=O)c1)C2)Cc1ccccc1.O=C(O)C(F)(F)F | 7 to 10.5 | 7 to 10.5 | < 40%
COc1ccc(NC(=O)N(CCN2[C@@H]3CC[C@H]2C[C@@H](c2cccc(O)c2)C3)CC2CCCCC2)cc1OC | 7 to 10.5 | 7 to 10.5 | < 40%
O=C(CO)N(CCN1[C@@H]2CC[C@H]1C[C@@H](c1cccc(O)c1)C2)Cc1ccc(F)cc1 | 7 to 10.5 | 7 to 10.5 | < 40%
CN(C)CCCC(=O)N(CCN1[C@@H]2CC[C@H]1C[C@@H](c1cccc(C(N)=O)c1)C2)CC1CCCCC1 | 7 to 10.5 | 7 to 10.5 | < 40%
CS(=O)(=O)Nc1cccc([C@H]2C[C@H]3CC[C@@H](C2)N3CCN(CC2CCCCC2)C(=O)CO)c1 | 7 to 10.5 | 7 to 10.5 | < 40%
CS(=O)(=O)CC(=O)N(CCCN1[C@@H]2CC[C@H]1C[C@@H](c1cccc(C(N)=O)c1)C2)Cc1ccccc1.O=C(O)C(F)(F)F | 7 to 10.5 | 7 to 10.5 | < 40%
C[C@H](CN1[C@@H]2CC[C@H]1C[C@@H](c1cccc(O)c1)C2)N(Cc1ccccc1)C(=O)CCC(=O)O | 7 to 10.5 | 7 to 10.5 | < 40%
O=C(CO)N(CCN1[C@@H]2CC[C@H]1C[C@@H](c1cccc(O)c1)C2)Cc1ccc(C(F)(F)F)cc1 | 7 to 10.5 | 7 to 10.5 | < 40%
COCC(=O)N(CCN1[C@@H]2CC[C@H]1C[C@@H](c1cccc(C(N)=O)c1)C2)Cc1ccccc1.O=C(O)C(F)(F)F | 7 to 10.5 | 7 to 10.5 | < 40%

Structure (SMILES) | pKi [1] | pKi [2] | Intrinsic activity [3]
C[C@H](O)C(=O)N(CCN1[C@@H]2CC[C@H]1C[C@@H](c1cccc(C(N)=O)c1)C2)CC1CCC1.O=C(O)C(F)(F)F | 7 to 10.5 | 7 to 10.5 | < 40%
CC(=O)OCC(=O)N(CCN1[C@@H]2CC[C@H]1C[C@@H](c1cccc(O)c1)C2)Cc1ccccc1.O=C(O)C(F)(F)F | 7 to 10.5 | 7 to 10.5 | < 40%
NC(=O)c1cccc([C@H]2C[C@H]3CC[C@@H](C2)N3CCN(CC2CCCC2)C(=O)[C@@H](O)CO)c1.O=C(O)C(F)(F)F | 7 to 10.5 | 7 to 10.5 | < 40%
NC(=O)c1cccc([C@H]2C[C@H]3CC[C@@H](C2)N3CCN(CC2CCCCC2)C(=O)CCCO)c1 | 7 to 10.5 | 7 to 10.5 | < 40%
CS(=O)(=O)CC(=O)N(CCN1[C@@H]2CC[C@H]1C[C@@H](c1cccc(C(N)=O)c1)C2)CC1CCC1.O=C(O)C(F)(F)F | 7 to 10.5 | 7 to 10.5 | < 40%
C[C@H](CN1[C@@H]2CC[C@H]1C[C@@H](c1cccc(O)c1)C2)N(Cc1ccccc1)C(=O)C1CCCCC1 | 7 to 10.5 | 7 to 10.5 | < 40%
NC(=O)c1cccc([C@H]2C[C@H]3CC[C@@H](C2)N3CCN(CC2CCCCC2)C(=O)CCC(=O)O)c1 | 7 to 10.5 | 7 to 10.5 | < 40%
CN(C)[C@@H](Cc1ccccc1)C(=O)N(CCN1[C@@H]2CC[C@H]1C[C@@H](c1cccc(O)c1)C2)CC1CCCCC1 | 7 to 10.5 | 7 to 10.5 | < 40%
O=C(O)CC(=O)N(CCN1[C@@H]2CC[C@H]1C[C@@H](c1cccc(O)c1)C2)Cc1cccc(F)c1 | 7 to 10.5 | 7 to 10.5 | < 40%
NC(=O)c1cccc([C@H]2C[C@H]3CC[C@@H](C2)N3CCN(CCc2cccc(F)c2)C(=O)CO)c1.O=C(O)C(F)(F)F | 7 to 10.5 | 7 to 10.5 | < 40%
O=C(C1CCCC1)N(CCN1[C@@H]2CC[C@H]1C[C@@H](c1cccc(O)c1)C2)Cc1ccccc1 (single isomer, unassigned) | 7 to 10.5 | 7 to 10.5 | < 40%
CS(=O)(=O)CC(=O)N(CCN1[C@@H]2CC[C@H]1C[C@@H](c1cccc(C(N)=O)c1)C2)CC1CCC(F)(F)CC1.O=C(O)C(F)(F)F | 7 to 10.5 | 7 to 10.5 | < 40%
CS(=O)(=O)CC(=O)N(CCCN1[C@@H]2CC[C@H]1C[C@@H](c1cccc(C(N)=O)c1)C2)CC1CCCCC1 | 7 to 10.5 | 7 to 10.5 | < 40%
C[C@H](O)C(=O)N(CCN1[C@@H]2CC[C@H]1C[C@@H](c1cccc(C(N)=O)c1)C2)Cc1c(F)cccc1F.O=C(O)C(F)(F)F | 7 to 10.5 | 7 to 10.5 | < 40%
O=C(CO)N(CCN1[C@@H]2CC[C@H]1C[C@@H](c1cccc(O)c1)C2)Cc1cccc(F)c1 | 7 to 10.5 | 7 to 10.5 | < 40%
CC(C)(CO)C(=O)N(CCN1[C@@H]2CC[C@H]1C[C@@H](c1cccc(C(N)=O)c1)C2)Cc1ccccc1.O=C(O)C(F)(F)F | 7 to 10.5 | 7 to 10.5 | < 40%
NC(=O)c1cccc([C@H]2C[C@H]3CC[C@@H](C2)N3CCN(CCC2CCCCC2)C(=O)CO)c1 | 7 to 10.5 | 7 to 10.5 | < 40%
O=C(Nc1ccc(OC(F)F)cc1)N(CCN1[C@@H]2CC[C@H]1C[C@@H](c1cccc(O)c1)C2)CC1CCCCC1 | 7 to 10.5 | 7 to 10.5 | < 40%
CC(C)CC(=O)N(CCN1[C@@H]2CC[C@H]1C[C@@H](c1cccc(O)c1)C2)Cc1cccc(F)c1 | 7 to 10.5 | 7 to 10.5 | < 40%
O=C(NCc1ccccc1)N(CCN1[C@@H]2CC[C@H]1C[C@@H](c1cccc(O)c1)C2)CC1CCCCC1 | 7 to 10.5 | 7 to 10.5 | < 40%
CN(C)CC[C@H](O)C(=O)N(CCN1[C@@H]2CC[C@H]1C[C@@H](c1cccc(C(N)=O)c1)C2)CC1CCCCC1 | 7 to 10.5 | 7 to 10.5 | < 40%
CC(C)(C(=O)N(CCN1[C@@H]2CC[C@H]1C[C@@H](c1cccc(C(N)=O)c1)C2)CC1CCC1)S(C)(=O)=O.O=C(O)C(F)(F)F | 7 to 10.5 | 7 to 10.5 | < 40%
CS(=O)(=O)CC(=O)N(CCN1[C@@H]2CC[C@H]1C[C@@H](c1cccc(C(N)=O)c1)C2)Cc1c(F)cccc1F | 7 to 10.5 | 7 to 10.5 | < 40%
O=C(O)CCC(=O)N(CCN1[C@@H]2CC[C@H]1C[C@@H](c1cccc(O)c1)C2)Cc1ccccc1 | 7 to 10.5 | 7 to 10.5 | < 40%
CCC(CC)C(=O)N(CCN1[C@@H]2CC[C@H]1C[C@@H](c1cccc(O)c1)C2)Cc1ccccc1 | 7 to 10.5 | 7 to 10.5 | < 40%
